± gives the uncertainty stated by the source.
Assay: xn = mol fraction of the nth substance listed
Conditions: 298.15 K, 101 kPa

Cc1ncc(C[n+]2csc(CCO)c2C)c(N)n1.Cl.[Cl-] + CCCCCCCCCCCCOS(=O)(=O)[O-].[Na+] + O
Conditions | electrical conductivity [S/m]
x2 = 0.0001342, x1 = 1.8e-07 | 0.0619 ± 0.0011
x2 = 0.0001342, x1 = 9e-07 | 0.0635 ± 0.0011
x2 = 0.0001342, x1 = 1.8e-06 | 0.0732 ± 0.0013
x2 = 0.0001404, x1 = 1.8e-07 | 0.0639 ± 0.0011
x2 = 0.0001404, x1 = 9e-07 | 0.0653 ± 0.001
x2 = 0.0001404, x1 = 1.8e-06 | 0.0751 ± 0.0013
x2 = 0.0001465, x1 = 1.8e-07 | 0.0656 ± 0.0011
x2 = 0.0001465, x1 = 9e-07 | 0.0669 ± 0.0011
x2 = 0.0001465, x1 = 1.8e-06 | 0.077 ± 0.0013
x2 = 0.0001524, x1 = 1.8e-07 | 0.0672 ± 0.001
x2 = 0.0001524, x1 = 9e-07 | 0.0685 ± 0.001
x2 = 0.0001524, x1 = 1.8e-06 | 0.0789 ± 0.0014
x2 = 0.0001584, x1 = 1.8e-07 | 0.0687 ± 0.001
x2 = 0.0001584, x1 = 9e-07 | 0.0699 ± 0.0011
x2 = 0.0001584, x1 = 1.8e-06 | 0.0807 ± 0.0014
x2 = 0.0001641, x1 = 1.8e-07 | 0.07 ± 0.001
x2 = 0.0001641, x1 = 9e-07 | 0.0712 ± 0.0011
x2 = 0.0001641, x1 = 1.8e-06 | 0.0825 ± 0.0015
x2 = 0.0001699, x1 = 1.8e-07 | 0.0712 ± 0.00098
x2 = 0.0001699, x1 = 9e-07 | 0.0724 ± 0.0011
x2 = 0.0001699, x1 = 1.8e-06 | 0.0842 ± 0.0015
x2 = 0.0001757, x1 = 1.8e-07 | 0.0724 ± 0.00097
x2 = 0.0001757, x1 = 9e-07 | 0.0736 ± 0.0011
x2 = 0.0001757, x1 = 1.8e-06 | 0.0857 ± 0.0015
x2 = 0.0001814, x1 = 1.8e-07 | 0.0735 ± 0.00099
x2 = 0.0001814, x1 = 9e-07 | 0.0748 ± 0.0011
x2 = 0.0001814, x1 = 1.8e-06 | 0.0872 ± 0.0014
x2 = 0.000187, x1 = 1.8e-07 | 0.0745 ± 0.001
x2 = 0.000187, x1 = 9e-07 | 0.076 ± 0.0011
x2 = 0.000187, x1 = 1.8e-06 | 0.0885 ± 0.0015
x2 = 0.0001928, x1 = 1.8e-07 | 0.0755 ± 0.001
x2 = 0.0001928, x1 = 9e-07 | 0.0771 ± 0.0012
x2 = 0.0001928, x1 = 1.8e-06 | 0.0898 ± 0.0015
x2 = 0.0001982, x1 = 1.8e-07 | 0.0765 ± 0.001
x2 = 0.0001982, x1 = 9e-07 | 0.0782 ± 0.0012
x2 = 0.0001982, x1 = 1.8e-06 | 0.0911 ± 0.0016
x2 = 0.0002038, x1 = 1.8e-07 | 0.0775 ± 0.001
x2 = 0.0002038, x1 = 9e-07 | 0.0794 ± 0.0012
x2 = 0.0002038, x1 = 1.8e-06 | 0.0924 ± 0.0015
x2 = 0.0002092, x1 = 1.8e-07 | 0.0784 ± 0.001
x2 = 0.0002092, x1 = 9e-07 | 0.0805 ± 0.0012
x2 = 0.0002092, x1 = 1.8e-06 | 0.0937 ± 0.0016
x2 = 0.0002147, x1 = 1.8e-07 | 0.0793 ± 0.0011
x2 = 0.0002148, x1 = 9e-07 | 0.0816 ± 0.0012
x2 = 0.0002148, x1 = 1.8e-06 | 0.0949 ± 0.0015
x2 = 0.00022, x1 = 1.8e-07 | 0.0802 ± 0.0011
x2 = 0.00022, x1 = 9e-07 | 0.0826 ± 0.0012
x2 = 0.00022, x1 = 1.8e-06 | 0.0961 ± 0.0016
x2 = 0.0002254, x1 = 1.8e-07 | 0.081 ± 0.0011
x2 = 0.0002254, x1 = 9e-07 | 0.0837 ± 0.0013
x2 = 0.0002254, x1 = 1.8e-06 | 0.0973 ± 0.0016
x2 = 0.0002306, x1 = 1.8e-07 | 0.0819 ± 0.0011
x2 = 0.0002306, x1 = 9e-07 | 0.0848 ± 0.0013
x2 = 0.0002306, x1 = 1.8e-06 | 0.0983 ± 0.0016
x2 = 0.0002358, x1 = 1.8e-07 | 0.0827 ± 0.0011
x2 = 0.0002358, x1 = 9e-07 | 0.0858 ± 0.0013
x2 = 0.0002358, x1 = 1.8e-06 | 0.0993 ± 0.0016
x2 = 0.0002411, x1 = 1.8e-07 | 0.0836 ± 0.0024
x2 = 0.0002411, x1 = 9e-07 | 0.0869 ± 0.0031
x2 = 0.0002411, x1 = 1.8e-06 | 0.1 ± 0.0037

Source: the CheMixHub ionic liquid set
